Values quoted from earlier work, collected in US20140100274A1, “METHODS OF ADMINISTERING COMPOSITIONS COMPRISING DOCOSAPENTAENOIC ACID” (Matinas BioPharma, Inc., priority 2012, published 2014).

Settings: in vivo

First-pass metabolism: occurs in all statins except pravastatin
Structure (SMILES): CC[C@H](C)C(=O)O[C@H]1C[C@H](O)C=C2C=C[C@H](C)[C@H](CC[C@@H](O)C[C@@H](O)CC(=O)O)[C@H]21 [pravastatin]
